In the assay the target is T1, Pol theta polymerase domain (residues 1819-2590) (Homo sapiens, UniProt O75417).
T1 construct: Pol theta polymerase domain (residues 1819-2590)
T1 sequence (O75417 1819-2590): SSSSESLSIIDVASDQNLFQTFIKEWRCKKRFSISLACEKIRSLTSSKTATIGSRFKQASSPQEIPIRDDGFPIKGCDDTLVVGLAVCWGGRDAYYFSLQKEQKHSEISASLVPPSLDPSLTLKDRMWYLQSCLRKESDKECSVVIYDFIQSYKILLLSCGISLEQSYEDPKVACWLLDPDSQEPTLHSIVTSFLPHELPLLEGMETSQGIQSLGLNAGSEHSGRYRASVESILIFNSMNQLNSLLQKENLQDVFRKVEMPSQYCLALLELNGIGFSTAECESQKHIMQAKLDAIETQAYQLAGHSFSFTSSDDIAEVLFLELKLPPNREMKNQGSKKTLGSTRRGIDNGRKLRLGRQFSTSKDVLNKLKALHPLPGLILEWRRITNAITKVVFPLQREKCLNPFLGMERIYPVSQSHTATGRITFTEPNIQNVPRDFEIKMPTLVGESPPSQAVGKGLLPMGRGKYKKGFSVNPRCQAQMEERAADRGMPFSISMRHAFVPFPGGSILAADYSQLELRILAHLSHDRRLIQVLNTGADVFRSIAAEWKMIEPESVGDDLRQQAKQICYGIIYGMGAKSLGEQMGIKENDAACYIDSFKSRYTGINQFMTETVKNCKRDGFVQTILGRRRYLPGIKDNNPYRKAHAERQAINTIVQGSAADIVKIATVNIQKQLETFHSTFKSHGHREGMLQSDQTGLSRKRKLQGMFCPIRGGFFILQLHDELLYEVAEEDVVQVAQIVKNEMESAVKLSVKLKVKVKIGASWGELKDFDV
The assay is described as follows: Primer extension assay: inhibition of polymerase activity of Pol theta (molecular beacon fluorescence). The format is biochemical. The note with it: Pol theta polymerase domain 4 nM; 15 min pre-incubation; fluorescence change over 30 min (ex 485 nm, em 535 nm); 11-point dilution series. Here is the method: The ability of the compounds of Formula (I) to inhibit polymerase activity of Pol theta was determined using the assay described below.
A mixture of 20 uL of Pol theta polymerase domain (residues 1819-2590) at a final concentration of 4 nM in assay buffer (20 m M TRIS, pH 7.80, 50 mM KCl, 10 mM MgCl2, 1 mM DTT, 0.01% BSA, 0.01% Tween20) was added to test compounds (11-point dilution series of test compounds) except the low control wells without test compounds. The above enzyme and test compound inhibitor mixture was then incubated at room temperature for 15 min. An equal volume (20 μl) of dNTP substrate mixture (48 μM) and primed molecular beacon DNA (obtained by annealing template SEQ ID NO 2: (5′-CCTTCCTCCCGTGTCTTG-TACCTTCCCGTCA-GGAGGAAGG-3′) with 5′-TAMRA and 3′-BHQ and primer DNA (SEQ ID NO: 3; 5′-GACGGGAAGG-3′) in 10 mM Tris-HCl pH 8.0, 100 mM NaCl buffer) (96 nM) in assay buffer was added to all the test wells. The inhibition activity was measured by monitoring the fluorescence change over 30 min at 535 nm upon excitation at 485 nm. The high control (DMSO with enzyme) with high fluorescence intensity represents no inhibition of polymerase reaction while the low control (DMSO with buffer) with low fluorescence intensity represents full inhibition of polymerase activity. Slope of the reaction progress curves were used to calculate the rate of polymerization. The rates were used to determine the percent inhibition using a four-parameter inhibition model to generate IC50, Hill slope and max inhibition.

Broadly, the IC50 is the concentration needed to halve the response being measured.

Compound `Cc1cc(OCC(=O)N(C)c2ccccc2)nc(C)c1Cl` (racemic) [Example 36, 2-(5-chloro-4,6-dimethylpyridin-2-yloxy)-N-methyl-N-phenyl-acetamide] yielded a half-maximal inhibitory concentration (IC50) of 200 to 500 nM.

`CN(C(=O)CNc1nc(C(F)(F)F)cc(C(F)(F)F)c1C#N)c1cccc(C(N)=O)c1` [Example 1, 3-(2-(3-cyano-4,6-bis(trifluoromethyl)pyridin-2-yl-amino)-N-methylacetamido)benzamide] registered a half-inhibitory concentration (IC50) of 500 to 1000 nM.

As for `CN(C(=O)CNc1nc(C(F)(F)F)cc(C(F)(F)F)n1)c1ccc(F)cc1` [Example 2, 2-(4,6-bis(trifluoromethyl)pyrimidin-2-ylamino)-N-(4-fluoro-phenyl)-N-methylacetamide], the IC50 is less than 200 nM.

`CN(C(=O)CNc1nc(C(F)(F)F)cc(C(F)(F)F)c1C#N)c1ccc(C#N)cc1` [Example 3, 2-((3-cyano-4,6-bis(trifluoromethyl)pyridin-2-yl)-amino)-N-(4-cyanophenyl)-N-methylacetamide] had an IC50 of 200 to 500 nM.

As for `N#Cc1c(C(F)(F)F)cc(C(F)(F)F)nc1NCC(=O)N(c1ccc(F)cc1)C1CC1` [Example 4, 2-((3-cyano-4,6-bis(trifluoromethyl)pyridin-2-yl)-amino)-N-cyclopropyl-N-(4-fluorophenyl)acetamide], the IC50 was less than 200 nM.

On to `CN(C(=O)CNc1nc(C(F)(F)F)cc(C(F)(F)F)c1C#N)c1ccc(OC2CC2)cc1` [Example 5, 2-((3-cyano-4,6-bis(trifluoromethyl)pyridin-2-yl)-amino)-N-(4-cyclopropoxyphenyl)-N-methyl-acetamide], for which the half-inhibitory concentration (IC50) is less than 200 nM.

Take `CN(C(=O)CNc1nc(C(F)(F)F)cc(C(F)(F)F)c1C#N)c1ccc(OC(F)(F)F)cc1` [Example 6, 2-((3-cyano-4,6-bis(trifluoromethyl)pyridin-2-yl)-amino)-N-methyl-N-(4-(trifluoromethoxy)phenyl)-acetamide]: the IC50 is less than 200 nM.

In turn, `CN(C(=O)CNc1cc(C(F)(F)F)cc(C(F)(F)F)n1)c1ccc(F)cc1` [Example 7, 2-((4,6-bis(trifluoromethyl)pyridin-2-yl)amino)-N-(4-fluoro-phenyl)-N-methylacetamide] displayed an IC50 of less than 200 nM.

For the compound `N#Cc1c(C(F)(F)F)cc(C(F)(F)F)nc1NCC(=O)N(CC(F)(F)F)c1ccc(F)cc1` [Example 8, 2-(3-cyano-4,6-bis(trifluoromethyl)pyridin-2-yl-amino)-N-(4-fluorophenyl)-N-(2,2,2-trifluoroethyl)-acetamide], the IC50 was less than 200 nM.

In the case of `COc1ccc(N(C)C(=O)CNc2nc(C(F)(F)F)cc(C(F)(F)F)c2C#N)cc1` [Example 9, 2-[[3-cyano-4,6-bis(trifluoromethyl)pyridin-2-yl]-amino]-N-(4-methoxyphenyl)-N-methylacetamide], the IC50 was less than 200 nM.

In the case of `CN(C(=O)CNc1nc(C(F)(F)F)cc(C(F)(F)F)c1C#N)c1ccc(F)cc1` [Example 10, 2-(3-cyano-4,6-bis(trifluoromethyl)pyridin-2-yl-amino)-N-(4-fluorophenyl)-N-methylacetamide], the concentration for half-maximal inhibition (IC50) was less than 200 nM.

Consider `CN(C(=O)CNc1cc(Cl)cc(C(F)(F)F)c1C#N)c1ccc(F)cc1` [Example 11, 2-[[5-chloro-2-cyano-3-(trifluoromethyl)phenyl]-amino]-N-(4-fluorophenyl)-N-methylacetamide], for which the IC50 was less than 200 nM.

As for `CN(C(=O)CNc1cc(C(F)(F)F)cc(C(F)(F)F)c1)c1ccc(F)cc1` [Example 12, 2-((3,5-bis(trifluoromethyl)phenyl)amino)-N-(4-fluorophenyl)-N-methylacetamide], the IC50 is less than 200 nM.

As for `CN(C(=O)CNc1cc(Cl)cc(C(F)(F)F)c1)c1ccc(F)cc1` [Example 13, 3-[[3-chloro-5-(trifluoromethyl)phenyl]amino]-N-(4-fluoro-phenyl)-N-methylacetamide], the IC50 was less than 200 nM.

For the compound `CN(C(=O)COc1cc(Cl)cc(C(F)(F)F)c1)c1ccc(F)cc1` [Example 14, 2-[3-chloro-5-(trifluoromethyl)phenoxy]-N-(4-fluoro-phenyl)-N-methylacetamide], the IC50 was in the range of 200 to 500 nM.

`Cc1nc(N[C@@H](CCO)C(=O)N(C)c2ccc(F)cc2)c(C#N)c(C)c1Cl` [Example 15, (S)-2-(5-chloro-3-cyano-4,6-dimethylpyridin-2-yl-amino)-N-(4-fluorophenyl)-4-hydroxy-N-methyl-butanamide]: the IC50 was in the range of 200 to 500 nM.

`Cc1nc(N[C@@H](CC(N)=O)C(=O)N(C)c2ccc(F)cc2)c(C#N)c(C)c1Cl` [Example 18, (S)-2-(5-chloro-3-cyano-4,6-dimethylpyridin-2-yl-amino)-N1-(4-fluorophenyl)-N1-methylsuccinamide] showed a 50% inhibitory concentration (IC50) of 200 to 500 nM.

In turn, `Cc1nc(NCC(=O)N(C)c2ccc(F)cc2)c(C#N)c2ccccc12` [Example 19, 2-[(4-cyano-1-methylisoquinolin-3-yl)amino]-N-(4-fluorophenyl)-N-methylacetamide] displayed an IC50 of less than 200 nM.

Take `CN(C(=O)CNc1cc(Cl)cc(Br)c1)c1ccc(F)cc1` [Example 20, 2-[(3-bromo-5-chlorophenyl)amino]-N-(4-fluoro-phenyl)-N-methylacetamide]: the half-maximal inhibitory concentration (IC50) was 200 to 500 nM.

As for `Cc1nc(NCC(=O)N(C)c2cccc(C#N)c2)c(C#N)c(C)c1Cl` [Example 21, 2-((5-chloro-3-cyano-4,6-dimethylpyridin-2-yl)-amino)-N-(3-cyanophenyl)-N-methylacetamide], the 50% inhibitory concentration (IC50) is 200 to 500 nM.

`COc1ccc(N(C)C(=O)CNc2nc(C)c(Cl)c(C)c2C#N)cc1` [Example 22, 2-(5-chloro-3-cyano-4,6-dimethylpyridin-2-ylamino)-N-(4-methoxyphenyl)-N-methylacetamide] had a half-inhibitory concentration (IC50) of less than 200 nM.

For `Cc1nc(NCC(=O)N(C)c2ccc(F)cc2)c(Cl)c(C)c1Cl` [Example 23, 2-(3,5-dichloro-4,6-dimethylpyridin-2-ylamino)-N-(4-fluoro-phenyl)-N-methylacetamide], the concentration for half-maximal inhibition (IC50) was less than 200 nM.

With `CN(C(=O)CNc1ncc2c(c1C#N)CCC2)c1ccc(F)cc1` [Example 24, 2-(4-cyano-6,7-dihydro-5H-cyclopenta[c]pyridin-3-ylamino)-N-(4-fluorophenyl)-N-methylacetamide], the IC50 was in the range of 500 to 1000 nM.

`Cc1nc(N[C@@H](C)C(=O)N(C)c2ccc(F)cc2)c(C#N)c(C)c1Cl` [Example 25, (S)-2-((5-chloro-3-cyano-4,6-dimethylpyridin-2-yl)-amino)-N-(4-fluorophenyl)-N-methylpropanamide] displayed an IC50 of less than 200 nM.

`Cc1nc(NCC(=O)N(C)c2ccc(F)cc2F)c(C#N)c(C)c1Cl` [Example 26, 2-((5-chloro-3-cyano-4,6-dimethylpyridin-2-yl)-amino)-N-(2,4-difluorophenyl)-N-methylacetamide]: the IC50 was less than 200 nM.

With `Cc1c(C#N)c(NCC(=O)N(C)c2ccc(F)cc2)nc2c1CCC2` [Example 27, 2-([3-cyano-4-methyl-5H,6H,7H-cyclopenta[b]-pyridin-2-yl]amino)-N-(4-fluorophenyl)-N-methylacetamide], the concentration for half-maximal inhibition (IC50) is less than 200 nM.

For `Cc1nc(NCC(=O)N(C)c2ccc(F)cc2)c(C#N)c2c1CCC2` [Example 28, 2-(4-cyano-1-methyl-6,7-dihydro-5H-cyclopenta[c]-pyridin-3-ylamino)-N-(4-fluorophenyl)-N-methylacetamide], the IC50 was less than 200 nM.

For `Cc1c(C#N)c(NCC(=O)N(C)c2ccc(F)cc2)nc2ccccc12` [Example 29, 2-[(3-cyano-4-methylquinolin-2-yl)amino]-N-(4-fluorophenyl)-N-methylacetamide], the concentration for half-maximal inhibition (IC50) was in the range of 500 to 1000 nM.

On to `Cc1nc(NCC(=O)N(c2ccc(Cl)cc2)C(C)C)c(C#N)c(C)c1Cl` [Example 30, 2-[(5-chloro-3-cyano-4,6-dimethylpyridin-2-yl)-amino]-N-(4-chlorophenyl)-N-(propan-2-yl)-acetamide], for which the concentration for half-maximal inhibition (IC50) is 200 to 500 nM.

Source of the values: patent US20220098154A1 (IDEAYA Biosciences, Inc., priority 2019, published 2022).
